Three compounds from patent publication US20060223891A1, “Use of alverine, alone or in combination with a tricyclic antidepressant or an antidepressant which is a specific inhibitor of serotonin reuptake for treatment of depression” (CEREP, priority 2003, published 2006) can be followed below.

Common to all, as to format: in vivo
Data set [1] has as its system Swiss mice CD1. The data set can be described thus: forced swimming test, Alverine associated with imipramine, intraperitoneally (Example 3, test no. 1). The conditions noted are these: for duration of immobilisation as compared to the sample group (in words): tested alone at 3 mg/kg; for immobility time, individual mice / immobility time, Average / % of variation of immobility time / Dunnett test: intraperitoneally; for immobility time, individual mice / immobility time, Average: 30 minutes prior to the test; for immobility time, Average: n = 10; for % of variation of immobility time: vs average of excipient group; for Dunnett test: vs excipient group. The arrangement: key to Dunnett test: * indicates a significant difference for p < 0.05 (Dunnett test); ns indicates an insignificant result. On the procedure: (§1) The treatments are co-administered 30 minutes prior to the test in a coded and random order intraperitoneally with a volume of 10 ml/kg (5 ml/kg for each administration). Thirty minutes following administration the six groups of mice are subjected to the forced swimming test, in a vertical Plexiglas cylinder (height 24 cm, diameter 9 cm) containing water (height 6 cm, temperature 18-22° C.). The total duration of immobility is measured over the last four minutes of the test, six minutes in total. A mouse is deemed immobile when it ceases struggling and floats in the water without movements superfluous to those allowing it to keep its. head above water. A drop in immobility time is the reflection of an antidepressant effect. The results are expressed in total duration of immobility in seconds and as a percentage of variation of the total duration of immobility calculated from the average value of the sample group. The statistical significance between two treated groups is determined by using a Student test (P<0.05). The data are analysed using <<SigmaStat>> software.

Data set [2] deals with Swiss mice CD1. Nature of the data set: forced swimming test, Alverine administered intraperitoneally (Example 1). The conditions noted are these: for immobility time, individual mice / immobility time, Average: 30 minutes prior to the test; for immobility time, Average: N = 10; for % of variation of immobility time: vs average of excipient group; for Dunnett test: vs excipient group. More on the design: key to Dunnett test: * indicates a significant difference for p < 0.05 (Dunnett test); ns indicates an insignificant result. As to the method: Antidepressive Activity Test on Alverine administered intraperitoneally on a batch of mice. To establish the advantages according to the present invention a study was carried out on a batch of 50 mice. They were divided into 5 groups of 10 mice each. These are Swiss mice CD1 (CD-1®(ICR) IGS (Charles River France) weighing between 25 and 35 g. The substance to be tested is Alverine citrate (Sigma, in the form of dry powder, with a salt/base ratio of 1.68) comparatively to imipramine chlorhydrate (Sigma, in the form of dry powder, with a salt/base ratio of 1.13). The doses are expressed in terms of free active substances. The substances are prepared extemporaneously in the excipient. The treatments are administered 30 minutes prior to the test in a coded and random order intraperitoneally with a volume of 10 ml/kg. Thirty minutes following administration the five groups of mice are subjected to the forced swimming test, in a vertical Plexiglas cylinder (height 24 cm, diameter 9 cm) containing water (height 6 cm, temperature 18-22° C.). The total duration of immobility is measured over the last four minutes of the test, six minutes in total. A mouse is deemed immobile when it ceases struggling and floats in the water without movements superfluous to those allowing it to keep its head above water. A drop in immobility time is the reflection of an antidepressant effect. The results are expressed in total duration of immobility in seconds and as a percentage of variation of the total duration of immobility calculated from the average value of the sample group. The statistical significance between the treated groups and the sample group is determined by a Dunnett test using the residual variation according to analysis of the variance (P<0.05). The data are analysed using <<SigmaStat>> software. The results obtained are presented in the form of the following table, and in the form of a histogram, in FIG. 1.

Data set [3] relates to Swiss mice CD1. Nature of the data set: forced swimming test, Alverine administered orally (Example 2). More on the design: key to Dunnett test: * indicates a significant difference for p < 0.05 (Dunnett test); ns indicates an insignificant result. The conditions noted are these: for immobility time, individual mice / immobility time, Average: 60 minutes prior to the test; for immobility time, Average: N = 10; for % of variation of immobility time: vs average of excipient group; for Dunnett test: vs excipient group. On the procedure: Antidepressive Activity Test on Alverine administered orally on a batch of mice.
To establish the advantages according to the present invention a study, was carried out on a batch of 50 mice. They were divided into 5 groups of 10 mice each. These are Swiss mice CD1 (CD-1® (ICR) IGS (Charles River France) weighing between 25 and 35 g.
The substance to be tested is Alverine citrate (Sigma, in the form of dry powder, with a salt/base ratio of 1.68) comparatively to imipramine chlorhydrate (Sigma, in the form of dry powder, with a salt/base ratio of 1.13).
The fifth group is treated with imipramine (tricyclic antidepressant) at a dose of 30 mg/kg The doses are expressed in terms of free active substances. The substances are prepared extemporaneously in the excipient. […]
One hour following administration the five groups of mice are subjected to the forced swimming test, in a vertical Plexiglas cylinder (height 24 cm, diameter 9 cm) containing water (height 6 cm, temperature 18-22° C.). The total duration of immobility is measured over the last four minutes of the test, six minutes in total. A mouse is deemed immobile when it ceases struggling and floats in the water without movements superfluous to those allowing it to keep its head above water. A drop in immobility time is the reflection of an antidepressant effect.
The results are expressed in total duration of immobility in seconds and as a percentage of variation of the total duration of immobility calculated from the average value of the sample group.
The statistical significance between the treated groups and the sample group is determined by a Dunnett test using the residual variation according to analysis of the. variance (P<0.05). The data are analysed using <<SigmaStat>> software.

Data set [4] concerns Swiss mice CD1. Nature of the data set: forced swimming test, Alverine associated with fluoxetine, intraperitoneally (Example 3, test no. 2). Conditions: for immobility time, individual mice / immobility time, Average: 30 minutes prior to the test; for immobility time, Average: n = 10; for % of variation of immobility time: vs average of excipient group; for duration of immobilisation as compared to the sample group (in words): tested alone at 3 mg/kg. On the procedure:
as §1, with “Thirty minutes following administration the six groups of mice are subjected to the forced swimming test, in a vertical Plexiglas cylinder (height 24 cm, diameter 9 cm) containing water (height 6 cm, temperature 18-22° C.).” left out

[5] abbreviates: 3 mg/kg alone, intraperitoneally.
The mark [6] stands for this setting: 10 mg/kg alone, intraperitoneally.

“And” between values parts separate entries of the source, which are not always exact repeats. Identical values can stand only once. “Also recorded” adds a separate entry of the source. Counter-ions that a name gives are not always drawn.

For `CN(C)CCCN1c2ccccc2CCc2ccccc21` [Imipramine, imipramine], in data set [1], the “duration of immobilisation as compared to the sample group (in words)” value is listed as “decrease, statistically insignificant”.

Turning to `CCN(CCCc1ccccc1)CCCc1ccccc1` [Alverine citrate, N-ethyl-3,3′-diphenyldipropylamine], the “immobility time, individual mice” value was 128 s and 82 s and 151 s and 132 s and 127 s and 88 s and 85 s and 99 s and 93 s and 118 s in data set [2] (3 mg/kg intraperitoneally); 29 s and 86 s and 28 s and 30 s and 90 s and 99 s and 65 s and 129 s and 57 s and 3 s in data set [2] (10 mg/kg intraperitoneally); 97 sec and 3 sec and 66 sec and 36 sec and 0 sec and 15 sec and 7 sec (2×) and 16 sec and 12 sec in data set [2] (30 mg/kg intraperitoneally); 95 s and 104 s and 111 s and 126 s and 108 s and 78 s and 115 s and 106 s and 113 s and 86 s in data set [3] (10 mg/kg orally); 80 sec and 64 sec and 70 sec and 105 sec (3×) and 41 sec and 63 sec and 113 sec and 104 sec in data set [3] (30 mg/kg orally); 129 s and 67 s and 6 s and 105 s and 75 s and 81 s and 5 s and 37 s and 32 s and 52 s in data set [3] (100 mg/kg orally). Also, the “immobility time, individual mice” value was 108 s and 134 s and 113 s and 65 s and 85 s and 73 s and 79 s and 125 s and 95 s and 140 s in data set [1] (3 mg/kg alone); 28 s and 10 s and 1 s and 74 s and 22 s and 70 s and 69 s and 67 s and 42 s and 57 s in data set [1] (10 mg/kg alone); 119 sec and 138 sec and 117 sec (2×) and 110 sec and 73 sec and 47 sec and 124 sec and 72 sec and 32 sec in data set [4] (setting [5]); 63 sec and 75 sec (2×) and 77 sec and 46 sec and 6 sec and 113 sec and 89 sec and 104 sec and 125 sec in data set [4] (setting [6]). Also, the “immobility time, Average” value in data set [2] (3 mg/kg intraperitoneally) was found to be 110.3 s; in data set [2] (10 mg/kg intraperitoneally), 61.6 s; in data set [2] (30 mg/kg intraperitoneally) it was 25.9 s; in data set [3] (10 mg/kg orally), 104.2 s; in data set [3] (30 mg/kg orally), 85.0 s; in data set [3] (100 mg/kg orally), 58.9 s. In addition, the “immobility time, Average” value in data set [1] (3 mg/kg alone) turned out to be 101.7 s; in data set [1] (10 mg/kg alone), 44.0 s; in data set [4] (setting [5]) it was 94.9 s; in data set [4] (setting [6]), 77.3 s. In addition, the “% of variation of immobility time” value is recorded as −15% in data set [2] (3 mg/kg intraperitoneally); −53% in data set [2] (10 mg/kg intraperitoneally); −80% in data set [2] (30 mg/kg intraperitoneally); −30% in data set [3] (10 mg/kg orally); −43% in data set [3] (30 mg/kg orally); −60% in data set [3] (100 mg/kg orally). In addition, the “% of variation of immobility time” value in data set [1] (3 mg/kg alone) is listed as −30%; in data set [1] (10 mg/kg alone), −70%; in data set [4] (setting [5]), −37%; in data set [4] (setting [6]), −49%. Further, the Dunnett test entry is on record as “ns” in data set [2] (3 mg/kg intraperitoneally); “* (* indicates a significant difference for p < 0.05 (Dunnett test))” in data set [2] (10 mg/kg intraperitoneally); “* (* indicates a significant difference for p < 0.05 (Dunnett test))” in data set [2] (30 mg/kg intraperitoneally); “ns” in data set [3] (10 mg/kg orally); “* (* indicates a significant difference for p < 0.05 (Dunnett test))” in data set [3] (30 mg/kg orally); “* (* indicates a significant difference for p < 0.05 (Dunnett test))” in data set [3] (100 mg/kg orally). Besides, the Dunnett test result in data set [1] (3 mg/kg alone) was “ns”; in data set [1] (10 mg/kg alone), “* (* indicates a significant difference for p < 0.05 (Dunnett test))”; in data set [4] (10 mg/kg alone, intraperitoneally, vs excipient group), “* (* indicates a significant difference for p < 0.05 (Dunnett test))”. The “antidepressant effect (in words)” value in data set [2] (injected intraperitoneally, 3 to 30 mg/kg, mice) was “antidepressant effect proportional to the dose; also recorded: significant antidepressant effect”; in data set [3] (orally, 10 to 100 mg/kg, mice), “significant antidepressant effect; also recorded: antidepressant effect proportional to the dose”. Moreover, the secondary effect observed result in data set [3] (mice treated orally, 10 to 100 mg/kg) is listed as “no secondary effect was observed”. Moreover, the “duration of immobilisation as compared to the sample group (in words)” value in data set [1] was “decrease, statistically insignificant”; in data set [4] it was “decrease, statistically insignificant”.

As to `CNCCC(Oc1ccc(C(F)(F)F)cc1)c1ccccc1` (stereo not shown) [Fluoxetine, fluoxetine], the “duration of immobilisation as compared to the sample group (in words)” value in data set [4] was “decrease, statistically insignificant”.
